Earlier results on 2 compounds are cited in patent EP1556366B1, “PROCESS FOR THE E[…] OLEFINS” (Degussa AG, priority 2002, dated 2004).

Molecules are shown by their SMILES. Read-outs that look alike come from different tables or passages of the source.

On to `CN` [MeNH2, methyl amine], for which the pkB is reported as 3.36. For the same compound, the pkB (Table 2, nitrogen bases) is listed as 3.36.
`CN(C)C` [Me3N, trimethyl amine]: the pkB is 4.26. Moreover, the pkB (Table 2, nitrogen bases) is recorded as 4.26.
